In the supplement of paper PMC10307832:

What was measured:
Assay in all cases: relative viability (nuclei count vs DMSO), 5 days (fraction); higher = more cells survive
[1] = compound: O=C(Nc1cc(C(F)(F)F)cc(C(F)(F)F)c1)c1cc(Cl)ccc1O [IMD-0354] + COc1cc2c(Oc3ccc(NC(=O)C4(C(=O)Nc5ccc(F)cc5)CC4)cc3F)ccnc2cc1OCCCN1CCOCC1 [Foretinib] (partner 0.25 µM)
Summary of the method: (§1)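 Lung cancer cell lines, seeded in 1536-well plates, were treated the following day by pin tool with a single drug or with five library-drug doses (not always all listed) in √10 steps on top of a fixed anchor-drug dose. Cells were fixed and nuclei stained in one step after 5 days, and nuclei were counted. Relative viability is the nuclei count for treated wells divided by that for vehicle wells, reported as medians of duplicate plates.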

[2] = compound: Cc1cnc(CNC(=O)c2c(=O)c3ccc(N4CCCN(C)CC4)nc3n3c2sc2ccccc23)cn1 [CX-5461] + Cc1cc(Nc2cc(N3CCN(C)CC3)nc(Sc3ccc(NC(=O)C4CC4)cc3)n2)n[nH]1 [Tozasertib] (partner 0.1 µM)
Summary of the method: as §1

[3] = compound: Cc1cnc(CNC(=O)c2c(=O)c3ccc(N4CCCN(C)CC4)nc3n3c2sc2ccccc23)cn1 [CX-5461] + C[C@]1(O)C[C@@H](c2nc(-c3ccc4ccc(-c5ccccc5)nc4c3)c3c(N)nccn32)C1 [Linsitinib] (partner 1 µM)
Summary of the method: as §1

[4] = compound: O=C(Nc1cc(C(F)(F)F)cc(C(F)(F)F)c1)c1cc(Cl)ccc1O [IMD-0354] + Cc1nc(NC(=O)N2CCC[C@H]2C(N)=O)sc1-c1ccnc(C(C)(C)C(F)(F)F)c1 [Alpelisib] (partner 2 µM)
Summary of the method: as §1

With UMC-11 the relative viability ([1]; first compound 0.04 µM) was 1.07, the relative viability ([1]; first compound 0.1265 µM) was 1.03 and the relative viability ([1]; first compound 0.4 µM) was 0.431. For the same cell line, the relative viability ([1]; first compound 1.265 µM) was 0.235, the relative viability ([1]; first compound 4 µM) was 0.235 and the relative viability ([2]; first compound 0.01 µM) was 0.189. For the same cell line, the relative viability ([2]; first compound 0.03162 µM) was 0.201, the relative viability ([2]; first compound 0.1 µM) was 0.204 and the relative viability ([2]; first compound 0.3162 µM) was 0.198. For the same cell line, the relative viability ([2]; first compound 1 µM) was 0.243, the relative viability ([3]; first compound 0.01 µM) was 0.907 and the relative viability ([3]; first compound 0.03162 µM) was 1.07. The relative viability ([3]; first compound 0.1 µM) was 1.02, the relative viability ([3]; first compound 0.3162 µM) was 0.92 and the relative viability ([3]; first compound 1 µM) was 0.807. For the same cell line, the relative viability ([4]; first compound 0.04 µM) was 0.945, the relative viability ([4]; first compound 0.1265 µM) was 0.973 and the relative viability ([4]; first compound 0.4 µM) was 0.598. The relative viability ([4]; first compound 1.265 µM) was 0.235 and the relative viability ([4]; first compound 4 µM) was 0.281.
